From patent US5972952A, “Neuroprotective pharmaceutical composition containing stereoisomers of arylcyclohexylamines” (Le Centre National De La Recherche Scientifique, priority 1996, dated 1999) come the findings set out here.

Molecules are shown by their SMILES.

One assay has as its target PCP receptor. Nature of the assay: [^3H]TCP binding to the PCP receptor (rat brain minus cerebellum homogenate). The following applies: inhibition of [^3H]TCP (1 nM) specific binding, 30 min, 25° C., pH 7.7.
Assay [1] deals with mixed neuronal and glial neocortical cells. As to the kind of experiment: Protection of cultured neuronal cells against glutamate neurotoxicity (LDH release). The format is cell-based, Sprague-Dawley rat. The following applies: Rattus norvegicus, glutamate 500 μM for 5 min, 24 h, 100% = glutamate without test compound, read-out: % OF DEAD; for neurotoxicity, % of glutamate alone at 0.1 µM: test compound 0.1 μM; for neurotoxicity, % of glutamate alone at 1 µM: test compound 1 μM; for neurotoxicity, % of glutamate alone at 5 µM: test compound 5 μM; for neurotoxicity, % of glutamate alone at 10 µM: test compound 10 μM. The procedure:
Cultures of mixed neuronal and glial neocortical cells were prepared from 18-day-old Sprague-Dawley rat foetuses (IFFA-Credo, St. Germain l'Arbresle, France). The cerebral hemispheres were rapidly dissected in Hanks' BSS supplemented with glucose (6 g/l), incubated in trypsine-EDTA (5 min at 35° C.), rinsed with calcium/magnesium-free glucosed Hanks' and mechanically dissociated. After centrifugation (10 min, 70 g), the cells were resuspended in the culture medium consisting of 87% Eagle's minimal essential medium (MEM), 10% horse serum and 0.6% glucose (without antibiotics), and plated on poly-d-lysine (10 μg/cm^2) coated coverslips, in 24-well dishes, to a final density of 4×10^5 cells/cm^2 in 400 μl/well. The cultures were maintained for 2-3 weeks at 35° C. in a humidified atmosphere (95% air/5% CO2), one-third of the medium being replaced every 4 days.
After 17-20 days in vitro, the culture medium was replaced with 400 μl of experimental medium (EM supplemented with glucose) containing the test compound for 5 min. at room temperature. This medium was replaced with the experimental medium containing the same concentration of test compound plus glutamate 500 μM for another 5 min. Finally, the cells were rinsed with the experimental medium and incubated for 24 h. The control cultures had received the same number of replacements of medium as the experimental ones, with standard experimental medium. The 100% neurotoxicity level was based on the effect of glutamate 500 μM for 5 min. The protective effect was quantified by estimation of the activity of the lactate dehydrogenase (LDH) released in the medium. Culture supernatant (100 μl) was added to phosphate buffer (875 μl, 125 mM, pH 7.6) containing 0.3 mM pyruvic acid and β-NADH (25 μl, 10 mg/ml). The decrease in absorbance was measured at 340 nm (Lockhart, et al., Brain Res. 630:36-40 (1993)).
Four concentrations of test compounds were used, i.e., 10, 5, 1, and 0.1 μM. The dead-cell population was determined by LDH enzymic activity and the results, presented in Table II, were compared with the 100% mortality based on the 500 μM glutamate treated cells without test compound protection.
On the technique in general: LDH in the medium is a marker of cell lysis.

Experimental for PCP receptor: 1-[1-(2-thienyl)-2-methylcyclohexyl]piperidine (TCP) binding to the PCP receptor was performed as previously described. […] The rat brain (minus the cerebellum) was removed and homogenized with an Ultraturax (Ika Werke, Staufen, Germany, maximum setting) in a 50 mM Tris/HCl, pH 7.7 buffer for 20 s at 4° C. The homogenate was then centrifuged at 49,000 g for 20 min. and the pellet was resuspended in the same buffer and the homogenization-centrifugation steps performed a second time. The final pellet was resuspended in 10 volumes of a 50 mM Tris/Hepes, pH 7.7 buffer and used without further purification.
The homogenate (0.5-0.8 mg protein/ml) was incubated with N-[1-(2-thienyl) cyclohexyl]3,4-[^3 H]piperidine ([^3 H]TCP, 1 nM) (Amersham, Arlington Heights, Ill, 48 Ci/mmol) in a 5 mM Tris/Hepes, pH 7.7 buffer in the absence (total binding) and in the presence of the test compounds for 30 min. at 25° C. in a volume of 0.5 ml. […] The filters were rinsed twice with 5 ml of a 50 mM NaCl, Tris HCl 10 mM, pH 7.7 buffer and the radioactivity retained counted in 3.5 ml ACS (Amersham) with an Excel 1410 (LKB) liquid scintillation spectrophotometer. The nonspecific binding was determined in parallel experiments in the presence of 100 μM unlabeled TCP.

Consider `C[C@@H]1CCCC[C@]1(c1ccco1)N1CCCCC1` [(1S,2R)1-[1-(2-Furanyl)-2-methylcyclohexyl]-piperidine], for which, on PCP receptor, the IC50 (usually the midpoint of a concentration-inhibition curve) was 5.5 ± 1.9 nM. In assay [1], the neurotoxicity, % of glutamate alone at 0.1 µM stood at 92.5%; the neurotoxicity, % of glutamate alone at 1 µM worked out at 83.6%; the neurotoxicity, % of glutamate alone at 5 µM came to 43.3%; the neurotoxicity, % of glutamate alone at 10 µM was 32.1%.
`C[C@@H]1CCCC[C@]1(c1cccs1)N1CCCCC1` [(1S,2R)1-[1-(2-Thienyl)-2-methylcyclohexyl]-piperidine]: in assay [1], the neurotoxicity, % of glutamate alone at 0.1 µM worked out at 90.3%; the neurotoxicity, % of glutamate alone at 1 µM is 32.9%; the neurotoxicity, % of glutamate alone at 5 µM turned out to be 27.2%; the neurotoxicity, % of glutamate alone at 10 µM stood at 29.7%.
